Laboratory results as given in patent US20250382290A1, “SALTS OF SOS1 INHIBITORS” (MIRATI THERAPEUTICS, INC., priority 2022, published 2025).
pIC50: −log10 of the molar value.

Tested on: pERK (KRas-mediated, SOS1-dependent) in MKN1 or H358 cells
Assay: cells
Details: read-out: IC50 (pERK inhibition)
Description: Assay day 1, cells were dosed with the compounds of the invention with a 10 μm starting concentration and serially diluted 3× for a total of 9 concentrations. The cells were incubated for approximately 0.5-1 hour with the compounds solubilized in DMSO at 37° C. Cells were immediately fixed by adding 50 μL of 4% formaldehyde to all wells in a fume hood and the plates were incubated for 20 minutes at room temperature. The formaldehyde was discarded from the plates and 150 μL of ice-cold methanol was added to permeabilize the cells for 10 minutes at −20° C. The methanol was discarded from each of the plates and any liquid remaining in the plate by tapping the plate against paper towels. […] The plates were incubated overnight at 4° C. on a shaker.
On Assay day 2, the primary antibody solution was removed. […] The secondary antibody solution as removed and each plate was washed with PBST 3× times. Any liquid remaining was discarded and the plate was imaged using the Licor Odyssey machine according to the manufacturer's instruction, using a set focus length at 3 mm and both 800 nm and 700 nm filters. The GAPDH normalized scan values for each well were divided by the average of vehicle wells to get the % of pERK inhibition. The IC50 values were then calculated with the Graph pad Prism software.

How did the pIC50 turn out when `Cc1c(C#N)cccc1[C@@H](C)Nc1nnc(C)c2cnc(N3CCOCC3)cc12` [Example 12-10, (R)-2-methyl-3-(1-((4-methyl-7-morpholinopyrido[3,4-d]pyridazin-1-yl)amino)ethyl)benzonitrile] was run?
Its pIC50 is 7.34.
